Test results from US6867185B2 (Bristol-Myers Squibb Company, priority 2001, dated 2005).
Where a name gives a salt, the structure may show the parent alone. Read-outs that look alike come from different tables or passages of the source.

Assays:
[1] = target: T1, HCV NS3/4A protease complex, BMS strain (genotype 1a) (Hepatitis C virus genotype 1a, UniProt P27958, C1454S/C1711G); experiment: Recombinant HCV NS3/4A protease complex FRET peptide assay (BMS strain); format: biochemical; conditions: IC50 ranges
T1 construct: recombinant HCV NS3/4A protease complex (amino'acids 1027 to 1711); inferred from the pET21b vector and Ni-NTA purification; made in house; host or cells: Escherichia coli BL21 (DE3), pET21b
Source text: The purpose of this in vitro assay was to measure the inhibition of HCV NS3 protease complexes, derived from the BMS, H77C or J4L6S strains, as described below, by compounds of the present invention. This assay provides an indication of how effective compounds of the present invention would be in inhibiting HCV proteolytic activity.
Serum from an HCV-infected patient was obtained from Dr. T. Wright, San Francisco Hospital. An engineered full-length cDNA (compliment deoxyribonucleic acid) template of the HCV genome (BMS strain) was constructed from DNA fragments obtained by reverse transcription-PCR (RT-PCR) of serum RNA (ribonucleic acid) and using primers selected on the basis of homology between other genotype 1a strains. From the determination of the entire genome sequence, a genotype 1a was assigned to the HCV isolate according to the classification of Simmonds et al. (See P Simmonds, K A Rose, S Graham, S W Chan, F McOmish, B C Dow, E A Follett, P L Yap and H Marsden, J. Clin. Microbiol., 31 (6), 1493-1503 (1993)). […] The infectious clones, H77C (1a genotype) and J4L6S (1b genotype) were obtained from R. Purcell (N1H) and the sequences are published in Genbank (AAB67036, see Yanagi, M., Purcell, R. H., Emerson, S. U. and Bukh, J. Proc. Natl. Acad. Sci. U.S.A. 94 (16), 8738-8743 (1997); AF054247, see Yanagi, M., St Claire, M., Shapiro, M., Emerson, S. U., Purcell, R. H. and Bukh, J, Virology 244 (1), 161-172. (1998)).
The BMS, H77C and J4L6S strains were used for production of recombinant NS3/4A protease complexes. DNA encoding the recombinant HCV NS3/4A protease complex (amino'acids 1027 to 1711) for these strains were manipulated as described by P. Gallinari et al. (see Gallinari P, Paolini C, Brennan D, Nardi C, Steinkuhler C, De Francesco R. Biochemistry. 38 (17):5620-32, (1999)). Briefly, a three-lysine solubilizing tail was added at the 3′-end of the NS4A coding region. The cysteine in the P1 position of the NS4A-NS4B cleavage site (amino acid 1711) was changed to a glycine to avoid the proteolytic cleavage of the lysine tag. Furthermore, a cysteine to serine mutation was introduced by PCR at amino acid position 1454 to prevent the autolytic cleavage in the NS3 helicase domain. The variant DNA fragment was cloned in the pET21b bacterial expression vector (Novagen)and the NS3/4A complex was expressed in Escherichia. coli strain BL21 (DE3) (Invitrogen) following the protocol described by P. Gallinari et al. (see Gallinari P, Brennan D, Nardi C, Brunetti M, Tomei L, Steinkuhler C, De Francesco R., J. Virol. 72 (8):6758-69 (1998)) with modifications. Briefly, NS3/4A expression was induced with 0.5 mM Isopropyl β-D-1-thiogalactopyranoside (IPTG) for 22 hr at 20° C. A typical fermentation (10L) yielded approximately 80 g of wet cell paste. The cells were resuspended in lysis buffer (10 mL/g) consisting of 25 mM N-(2-Hydroxyethyl)Piperazine-N′-(2-Ethane Sulfonic acid) (HEPES), pH 7.5, 20% glycerol, 500 mM Sodium Chloride (NaCl), 0.5% Triton-X100, 1 ug/ml lysozyme, 5 mM Magnesium Chloride (MgCl2), 1 ug/ml Dnasel, 5 mM β-Mercaptoethanol (OME), Protease inhibitor-Ethylenediamine Tetraacetic acid (EDTA) free (Roche), homogenized and incubated for 20 mins at 4° C. The homogenate was sonicated and clarified by ultra-centrifugation at 235000 g for 1 hr at 4° C. Imidazole was added to the supernatant to a final concentration of 15 mM and the pH adjusted to 8.0. The crude protein extract was loaded on a Nickel-Nitrilotriacetic acid (Ni-NTA) column pre-equilibrated with buffer B (25 mM HEPES, pH 8.0, 20% glycerol, 500 mM NaCl, 0.5% Triton-X100, 15 mM imidazole, 5 mM βME). The sample was loaded at a flow rate of 1 mL/min. The column was washed with 15 column volumes of buffer C (same as buffer B except with 0.2% Triton-X100). The protein was eluted with 5 column volumes of buffer D (same as buffer C except with 200 mM Imidazole). […]

[2] = test system: HCV replicon in Huh7 cells; experiment: HCV replicon cell-based assay (replicon FRET assay); parameters: species or system HCV strain 1B; conditions: EC50 ranges
Source text: An HCV replicon whole cell system was established as described by Lohmann V, Korner F, Koch J, Herian U, Theilmann L, Bartenschlager R., Science 285 (5424):110-3 (1999). This system enabled us to evaluate the effects of our HCV Protease compounds on HCV RNA replication. Briefly, using the HCV strain 1B sequence described in the Lohmann paper (Assession number:AJ238799), an HCV cDNA was generated encoding the 5′ internal ribosome entry site (IRES), the neomycin resistance gene, the EMCV (encephalomyocarditis viurs)-IRES and the HCV nonstructural proteins, NS3-NS5B, and 3′ non-translated region (NTR). In vitro transcripts of the cDNA were transfected into the human hepatoma cell line, Huh7. […] Resulting cell lines were characterized for positive and negative strand RNA production and protein production over time.
Huh7 cells, constitutively expressing the HCV replicon, were grown in Dulbecco's Modified Eagle Media (DMEM) containing 10% Fetal calf serum (FCS) and 1 mg/ml G418 (Gibco-BRL). Cells were seeded the night before (1.5×10^4 cells/well) in 96-well tissue-culture sterile plates. Compound and no compound controls were prepared in DMEM containing 4% FCS, 1:100 Penicillin/Streptomysin, 1:100 L-glutamine and 5% DMSO in the dilution plate (0.5% DMSO final concentration in the assay). Compound/DMSO mixes were added to the cells and incubated for 4 days at 37° C. After 4 days, plates were rinsed thoroughly with Phosphate-Buffered Saline (PBS) (3 times 150 μl). The cells were lysed with 25 μl of a lysis assay reagent containing the FRET peptide (RET S1, as described for the in vitro enzyme assay). The lysis assay reagent was made from 5× cell Luciferase cell culture lysis reagent(Promega #E153A) diluted to 1× with distilled water, NaCl added to 150 mM final, the FRET peptide diluted to 10 μM final from a 2 mM stock in 100% DMSO. The plate was then placed into the Cytofluor 4000 instrument which had been set to 340 nm excitation/490 emission, automatic mode for 21 cycles and the plate read in a kinetic mode. EC50 determinations were carried out as described for the IC50 determinations.

[3] = IC50, HCV NS3/4A protease FRET assay in vitro
[4] = Hepatitis C virus, Huh-7, HCV replicon cell assay

T1 sequence (P27958 1027-1711 C1454S/C1711G, one chain of several): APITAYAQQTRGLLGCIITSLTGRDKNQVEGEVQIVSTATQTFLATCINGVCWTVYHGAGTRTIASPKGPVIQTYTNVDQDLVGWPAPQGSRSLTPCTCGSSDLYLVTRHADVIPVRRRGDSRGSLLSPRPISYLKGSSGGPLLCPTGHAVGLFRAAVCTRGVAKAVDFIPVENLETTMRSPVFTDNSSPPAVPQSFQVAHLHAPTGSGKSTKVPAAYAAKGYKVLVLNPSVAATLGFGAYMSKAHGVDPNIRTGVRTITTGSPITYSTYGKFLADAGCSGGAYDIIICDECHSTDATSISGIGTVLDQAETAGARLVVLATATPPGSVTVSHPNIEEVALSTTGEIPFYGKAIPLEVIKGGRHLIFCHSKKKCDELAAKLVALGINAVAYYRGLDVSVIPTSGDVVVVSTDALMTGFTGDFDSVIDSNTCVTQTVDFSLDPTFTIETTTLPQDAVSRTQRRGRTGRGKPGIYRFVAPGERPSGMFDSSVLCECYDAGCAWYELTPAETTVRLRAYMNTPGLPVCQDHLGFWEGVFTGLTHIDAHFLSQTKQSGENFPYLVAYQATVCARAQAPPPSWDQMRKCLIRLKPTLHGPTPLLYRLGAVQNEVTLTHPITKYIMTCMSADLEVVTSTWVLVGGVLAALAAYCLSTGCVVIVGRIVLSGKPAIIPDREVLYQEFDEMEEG

Structure (SMILES): COc1ccc2c(O[C@@H]3C[C@H]4C(=O)N[C@]5(C(=O)NS(=O)(=O)C6CCC6)CC5CCCCCCC[C@H](NC(=O)OC(C)(C)C)C(=O)N4C3)cc(-c3ccccc3)nc2c1 (stereo partly drawn) [Compound 19, (1S,4R,6R,14S,18R)-[4-Cyclobutanesulfonylaminocarbonyl-18-(7-methoxy-2-phenylquinolin-4-yloxy)-2,15-dioxo-3,16-diazatricyclo-[14.3.0.0^4,6]nona-dec-14-yl]carbamic acid tert-butyl ester]
- IC50 [1, 3]: < 50 nM
- EC50 [2, 4]: < 50 nM

Structure (SMILES): COc1ccc2c(O[C@@H]3C[C@H]4C(=O)N[C@]5(C(=O)NS(=O)(=O)C6CC6)C[C@H]5CCCCCCC[C@H](N)C(=O)N4C3)cc(-c3ccccc3)nc2c1 [Compound 16, (1S,4R,6R,14S,18R)-Cyclopropanesulfonic acid [14-amino-18-(7-methoxy-2-phenylquinolin-4-yloxy)-2,15-dioxo-3,16-diazatricyclo[14.3.0.0^4,6]-nonadecane-4-carbonyl]amide dihydrochloride]
- IC50 [1, 3]: < 50 nM
- EC50 [2, 4]: < 50 nM

Structure (SMILES): COc1ccc2c(O[C@@H]3C[C@H]4C(=O)N[C@]5(C(=O)NS(=O)(=O)C6CC6)CC5/C=C/CCC[C@H](NC(=O)OC(C)(C)C)C(=O)N4C3)cc(-c3ccccc3)nc2c1 (stereo partly drawn) [Compound 3, (1S,4R,6S,12S,16R)-7-trans-[4-Cyclopropanesulfonyl-aminocarbonyl-16-(7-methoxy-2-phenylquinolin-4-yloxy)-2,13-dioxo-3,14-diazatricyclo[12.3.0.0^4,6]heptadec-7-en-12-yl]carbamic acid tert-butyl ester]
- IC50 [1, 3]: < 5000 nM
- EC50 [2, 4]: < 50000 nM

Structure (SMILES): COc1ccc2c(O[C@@H]3C[C@H]4C(=O)N[C@]5(C(=O)NS(=O)(=O)C6CC6)CC5/C=C\CCCCC[C@H](NC(=O)NC(C)(C)C)C(=O)N4C3)cc(-c3ccccc3)nc2c1 (stereo partly drawn) [Compound 20, (1S,4R,6S,14S,18R)-7-cis-Cyclopropanesulfonic acid [14-(3-tert-butylureido)-18-(7-methoxy-2-phenyl-quinolin-4-yloxy)-2,15-dioxo-3,16-diazatricyclo[14.3.0.0^4,6]nona-dec-7-ene-4-carbonyl]amide]
- IC50 [1, 3]: < 50 nM
- EC50 [2, 4]: < 50 nM

Structure (SMILES): COc1ccc2c(O[C@@H]3C[C@H]4C(=O)N[C@]5(C(=O)NS(=O)(=O)C6CC6)C[C@H]5/C=C\CCCCC[C@@H](NC(=O)OC(C)(C)C)C(=O)N4C3)ccnc2c1 [Compound 12]
- IC50 [1, 3]: < 500 nM
- EC50 [2, 4]: < 500 nM

Structure (SMILES): COc1ccc2c(O[C@@H]3C[C@H]4C(=O)N[C@]5(C(=O)NS(=O)(=O)C6CC6)C[C@H]5/C=C\CCCCC[C@H](NC(=O)OCCF)C(=O)N4C3)cc(-c3ccccc3)nc2c1 [Compound 21, (1S,4R,6S,14S,18R)-7-cis-[4-Cyclopropanesulfonylaminocarbonyl-18-(7-methoxy-2-phenylquinolin-4-yloxy)-2,15-dioxo-3,16-diazatricyclo-[14.3.0.0^4,6]nonadec-7-en-14-yl]carbamic acid 2-fluoroethyl ester]
- IC50 [1, 3]: < 50 nM
- EC50 [2, 4]: < 50 nM

Structure (SMILES): COc1ccc2c(O[C@@H]3C[C@H]4C(=O)N[C@]5(C(=O)NS(=O)(=O)C6CC6)C[C@H]5/C=C/CC[C@H](NC(=O)OC(C)(C)C)C(=O)N4C3)cc(-c3ccccc3)nc2c1 [Compound 1, (1S,4R,6S,11S,15R)-7-trans-[4-Cyclopropanesulfonyl-amino-carbonyl-15-(7-methoxy-2-phenylquinolin-4-yloxy)-2,12-dioxo-3,13-diazatricyclo[11.3.0.0^4,6]hexa-dec-7-en-11-yl]carbamic acid tert-butyl ester]
- IC50 [1, 3]: < 5000 nM
- EC50 [2, 4]: < 50000 nM

Structure (SMILES): COc1ccc2c(O[C@@H]3C[C@H]4C(=O)N[C@]5(C(=O)NS(=O)(=O)C6CC6)CC5/C=C\CCCC[C@H](N)C(=O)N4C3)cc(-c3ccccc3)nc2c1 (stereo partly drawn) [Compound 8, (1S,4R,6S,13S,17R)-7-cis-Cyclopropanesulfonic acid [13-amino-17-(7-methoxy-2-phenylquinolin-4-yloxy)-2,14-dioxo-3,15-diazatricyclo[13.3.0.0^4,6]octadec-7-ene-4-carbonyl]amide dihydrochloride]
- IC50 [1, 3]: < 50 nM
- EC50 [2, 4]: < 500 nM

Structure (SMILES): COc1ccc2c(O[C@@H]3C[C@H]4C(=O)N[C@]5(C(=O)NS(=O)(=O)C6CC6)C[C@H]5/C=C\CCCCC[C@H](NC(=O)OC(C)(C)C)C(=O)N4C3)cc(-c3csc(NC(C)=O)n3)nc2c1 [Compound 28, (1S,4R,6S,14S,18R)-7-cis-{18-[2-(2-Acetylaminothiazol-4-yl)-7-methoxyquinolin-4-yloxy]-4-cyclopropanesulfonylaminocarbonyl-2,15-dioxo-3,16-diazatricyclo-[14.3.0.0^4,6]nonadec-7-en-14-yl}carbamic acid tert-butyl ester]
- IC50 [1, 3]: < 50 nM
- EC50 [2, 4]: < 50 nM

Structure (SMILES): COc1ccc2c(O[C@@H]3C[C@H]4C(=O)N[C@]5(C(=O)NS(=O)(=O)C6CC6)C[C@H]5/C=C\CCCCC[C@H](NC(=O)OC(C)(C)C)C(=O)N4C3)cc(-c3ccccc3)nc2c1 (relative stereo) [Compound 11, (1S,4R,6S,13S,18R)-7-cis-[4-Cyclopropanesulfonyl-aminocarbonyl-18-(7-methoxy-2-phenylquinolin-4-yloxy)-2,15-dioxo-3,16-diazatricyclo-[14.3.0.0^4,6]nona-dec-7-en-14-yl]carbamic acid tert-butyl ester]
- IC50 ([1]; HCV NS3/4A protease FRET assay in vitro, read-out: IC50): < 50 nM
- EC50 ([2]; HCV replicon cell assay, read-out: EC50): < 50 nM
